The CheMixHub ionic liquid set

Test: xn = mol fraction of the nth substance listed
Conditions: for viscosity: 101 kPa; for electrical conductivity: 100 kPa

CC[n+]1ccn(CCOC)c1.O=S(=O)([O-])C(F)(F)F + CCO
Conditions	viscosity [mPa·s]
288.15 K, x1 = 0.2996	7.66
293.15 K, x1 = 0.699	35.3
293.15 K, x1 = 0.797	47.3
293.15 K, x1 = 0.899	64.4
298.15 K, x1 = 0.1999	3.6
298.15 K, x1 = 0.797	38.9
303.15 K, x1 = 0.0996	1.934
303.15 K, x1 = 0.1999	3.231
303.15 K, x1 = 1	57.9
308.15 K, x1 = 0.603	14.85
308.15 K, x1 = 0.797	26.79
308.15 K, x1 = 0.899	37.34
313.15 K, x1 = 0.797	22.71
318.15 K, x1 = 0.797	19.43

CCCCn1cc[n+](C)c1.[Cl][Fe-]([Cl])([Cl])[Cl] + CCOC(C)=O
Conditions	viscosity [mPa·s]
293.15 K, x1 = 0.6001	16.31
298.15 K, x1 = 0.7973	26.3
298.15 K, x1 = 0.9	34.2
303.15 K, x1 = 0.6001	12.31
303.15 K, x1 = 0.7973	22.35
308.15 K, x1 = 0.1999	1.86
308.15 K, x1 = 0.3999	5.26
308.15 K, x1 = 0.6001	10.84
308.15 K, x1 = 0.7973	19.21
308.15 K, x1 = 1	31.9
313.15 K, x1 = 0.1999	1.75
313.15 K, x1 = 0.7973	16.68
318.15 K, x1 = 0.3007	2.76
318.15 K, x1 = 0.3999	4.34
318.15 K, x1 = 0.9	18.34

CC[S+](CC)CCOCCOCCOCC[S+](CC)CC.N#C[N-]C#N.N#C[N-]C#N + CC[n+]1ccn(C)c1.N#C[N-]C#N + O=S(=O)([N-]S(=O)(=O)C(F)(F)F)C(F)(F)F.[Li+]
x1 = 0.2479, x2 = 0.6613
Conditions	electrical conductivity [S/m]
298 K	0.454
303 K	0.548
313 K	0.811
323 K	1.09
333 K	1.4
343 K	1.78

NCC(O)CN + CC[n+]1ccn(C)c1.[Cl-]
x2 = 0.667
Conditions	viscosity [mPa·s]
298.15 K	280
303.15 K	200.3
313.15 K	108.2
323.15 K	58.3
333.15 K	38.3

CC[n+]1ccn(C)c1.COS(=O)(=O)[O-] + CN1CCCC1=O
Conditions	viscosity [mPa·s]
298.15 K, x2 = 0.8502	4.99
303.15 K, x2 = 0.3825	28
303.15 K, x2 = 0.5291	17.6
303.15 K, x2 = 0.9298	2.91
308.15 K, x1 = 0.0115	1.52
308.15 K, x2 = 0.6518	9.5
308.15 K, x2 = 0.718	6.8
313.15 K, x2 = 0.0861	38.1

NCCO + CN1CCCC1=O + CCCC[n+]1ccn(C)c1.O=S(=O)([N-]S(=O)(=O)C(F)(F)F)C(F)(F)F
viscosity [mPa·s]
Conditions	293.15 K	298.15 K	303.15 K	308.15 K	313.15 K	318.15 K	323.15 K	328.15 K	333.15 K
x1 = 0.1608, x2 = 0.8154	3.357	3.042	2.776	2.553	2.364	2.204	2.068	1.95	1.848
x1 = 0.2089, x2 = 0.7256	4.749	4.206	3.761	3.388	3.089	2.818	2.599	2.41	2.252
x1 = 0.2436, x2 = 0.6371	6.416	5.617	4.959	4.413	3.958	3.575	3.254	2.982	2.752

CCCCCC[n+]1ccn(C)c1.O=S(=O)([N-]S(=O)(=O)C(F)(F)F)C(F)(F)F + CN(C)C=O
298.15 K
Conditions	electrical conductivity [S/m]
x1 = 0.06572	0.9
x1 = 0.09821	1.1
x1 = 0.1404	1.2
x1 = 0.1968	1.4
x1 = 0.275	1.2

CCCCCC[n+]1ccn(C)c1.O=S(=O)([N-]S(=O)(=O)C(F)(F)F)C(F)(F)F + CN(CCO)CCO
Conditions	viscosity [mPa·s]
303.15 K, x2 = 0	58.3
303.15 K, x2 = 0.801	49.3
308.15 K, x2 = 0.0989	45.6
308.15 K, x2 = 0.3999	34
313.15 K, x2 = 0.3999	31.4
313.15 K, x2 = 0.6075	30
313.15 K, x2 = 0.899	36.2
318.15 K, x2 = 0.7049	25.3
323.15 K, x2 = 0.2977	24.1
323.15 K, x2 = 0.7049	22.9
